Measurements from patent US20260284074A1, “ENT1 Inhibitors in Combination with Checkpoint Inhibitors” (iTeos Belgium SA, priority 2023, published 2026).

What was measured:
[1] = system: human T cells; assay: [3H]adenosine uptake in activated human T cells; type: cell-based; details: Homo sapiens, T-cell; T cells activated 2 days in presence of compound, washed, [3H]adenosine uptake; read-out: IC50, inhibition of uptake of adenosine into human T cells
Description: Applicant observed that activated human T cells took up [3H]adenosine, and this uptake was reduced in the presence of the selective ENT1 inhibitor dilazep, confirming that ENT1 is the dominant transporter involved in adenosine uptake in T cells.
Human T cells were activated for 2 days in the presence of Compound 1 or dilazep. The cells were then washed and used in a [^3H]adenosine uptake experiment. […] (See FIG. 27A.)

[2] = system: human T cells; assay: T cell proliferation by CFSE dilution in the presence of ATP; type: cell-based; details: Homo sapiens, read-out: IC50, restoration of T cell proliferation
Procedure: Human T cells were activated in the presence of 100 μM ATP and dilazep or Compound 1 and proliferation was monitored by CarboxyFluoroscein Succinimidyl Ester (CFSE) dilution. […] (See FIG. 27B.)

[3] = system: MDA-MB-231 cells; assay: MDA-MB-231 subcutaneous tumor model in humanized NCG mice; type: in vivo, mouse; details: day 51; Compound 1 30 mg/kg i.p. twice a day; nivolumab 10 mg/kg i.p. every 5 days
Procedure: The anti-tumor therapeutic efficacy of Compound 1 monotherapy, nivolumab monotherapy, and Compound 1-nivolumab combination therapy was assessed in ‘humanized’ mice with subcutaneous tumors resulting from the subcutaneous injection of MDA-MB-231 cells, a human triple-negative breast cancer cell line.
Human cell line xenograft experiments were performed at Transcure (France) and all associated animal procedures were reviewed and approved by the local ethics committee. The experiment was carried out with the NOD-Prkdc^em26cd52Il2rg^em26cd22/NjuCrl immunodeficient mouse strain (NCG from Charles River Laboratories, Wilmington, MA, USA). Four-week-old immunodeficient NCG mice were engrafted with cord-blood-derived human CD34^+ hematopoietic stem and progenitor cells (French Blood Institute, Paris, France) 2 days after chemical myeloablative treatment. Fourteen weeks after cell injection, engraftment level was monitored with the analysis of human CD45^+ cells among total blood leukocytes by flow cytometry (Attune, Life Technologies/Thermo Fisher Scientific, Waltham, MA, USA). […]
All the animals used were monitored daily, checking their clinical signs of distress and body weight and tumors were measured three times a week using an electronic caliper. The tumor volume was determined by applying the formula Length×(Width)^2×0.5. […]

**Q.** `COc1cc(C(=O)O[C@@H]2CCCOc3cc(cc(OC)c3OC)C(=O)NCCCN3CCCN(CC2)CC3)cc(OC)c1OC` [Compound 1, (12R)-7^4,7^5-dimethoxy-6-oxo-8-oxa-5-aza-1(1,4)-diazepana-7(1,3)-benzenacyclotetradecaphane-12-yl 3,4,5-trimethoxybenzoate] was tested. Which IC50 [1] did it give?
**A.** Its IC50 is 0.2 nM.

**Q.** And the IC50 [2]?
**A.** Its IC50 is 0.06 nM.

**Q.** And the “Tumor volume compared with vehicle group” value [3]?
**A.** Its value is “not statistically significantly different”.
